Assay results reported in patent US20050106305A1, “Beverage compositions comprising monatin and methods of making same” (Cargill, Inc., priority 2003, published 2005).
Read-outs that look alike come from different tables or passages of the source.

Columns and labels:
[1] = Sensory stability of monatin and aspartame at pH 2.5, 3.0, 4.0 at 40° C.; format: physicochemical; details: for Rate constant (k) of sweetness loss / half-life: pseudo-first order assumed; for SEV / Retention of Sweetness: stored 40° C., monatin ~55 ppm, aspartame 400 ppm; for half-life: phosphate/citrate buffer, read-out: Half-life (t½) of sweetness loss (converted)
Method: The sensory stability of monatin solutions prepared at pH 2.5, 3.0 and 4.0 and stored at 40° C. was monitored for 100 days. Loss of sweetness from these solutions was compared with the losses of sweetness from aspartame solutions prepared and stored under identical conditions.
The sensory stability of monatin (8% SEV, ˜55 ppm, synthetic blend containing approximately 96% of the 2R,4R/2S, 4S enantiometric pair and 4% of the 2R,4S/2S,4R enantiometric pair) in phosphate/citrate buffers having a pH of 2.5, 3.0, and 4.0 was examined after storage at 40° C. The stability of monatin was compared to that of aspartame (400 ppm) in the same buffers. Three sucrose reference solutions were prepared in the same phosphate/citrate buffers as the monatin and aspartame solutions. All prepared solutions were stored in the dark.
Buffer compositions: pH 2.5 Phosphoric acid (75% solution) 0.127% (w/v) Tri-sodium citrate monohydrate 0.005% (w/v) • pH 3.0 Phosphoric acid (75% solution) 0.092% (w/v) Tri-sodium citrate monohydrate 0.031% (w/v) • pH 4.0 Phosphoric acid (75% solution) 0.071% (w/v) Tri-sodium citrate monohydrate 0.047% (w/v)
The sweetness of each sweetener relative to sucrose was assessed in duplicate by a panel (n=8) of trained sensory evaluators experienced in the sweetness estimation procedure. All samples (in the same buffers) were served in duplicate at a temperature of 22° C.±1° C. Monatin (test) solutions, coded with 3 digit random number codes were presented individually to panelists, in random order. Sucrose reference standards, ranging from 4.0-10.0% (w/v) sucrose, increasing in steps of 0.5% (w/v) sucrose were also provided. Panelists were asked to estimate sweetness by comparing the sweetness of the test solution to the sucrose standards. This was carried out by taking 3 sips of the test solution, followed by a sip of water, followed by 3 sips of sucrose standard followed by a sip of water, etc. Panelists were encouraged to estimate the sweetness to one decimal place, e.g., 6.8, 8.5. A five minute rest period was imposed between evaluating the test solutions. Panelists were also asked to rinse well and eat a cracker to reduce any potential carry over effects.
If a pseudo-first order breakdown reaction is assumed, a plot of logn percentage retention versus time (logn%RTN v. t) allows estimation of the half-life (t½) and rate constant (k) of sweetness loss under any given set of conditions. In so doing, the kinetics of monatin and aspartame sweetness loss may be summarized as follows in Table 25.

[2] = Sensory evaluation of soft drinks (lemon/lime, orangeade, cola); format: in vivo; details: Cola; aspartame 550 ppm, sucralose 220 ppm, R,R monatin 45 ppm
Method: Beverages (cola, lemon-lime and orange) were formulated and sweetened with aspartame, sucralose or R,R monatin. Qualitative evaluation was carried out.
The term “throw” refers to dilution in water. For example, a throw of “1+4” means 1 part concentrate formulation to 4 parts water. Thus, if a concentrate formulation includes 0.021% wt/vol (i.e., 210 ppm) of R,R monatin, for example, a throw of 1+4 makes a diluted beverage containing 42 ppm (210 ppm/5) R,R monatin.
Final ready-to-drink beverages (after throw) contained sweetener concentrations as follows:
Evaluation of these soft drinks was carried out by a panel (n=6) of assessors who evaluated each set of drinks on separate tasting occasions.

[3] = Taste profiling of lemon/lime carbonates and colas; format: in vivo; details: HFCS 10%, aspartame 500 ppm, sucralose 200 ppm, blends 30.8 ppm/5.0%; for Average Score: score 1, poor-5, good, sucrose 10%
Method: Cola and lemon/lime beverages were prepared using the following formulations and sweetened with sucrose, HFCS (55% fructose), aspartame, sucralose, monatin (racemic mix described in Example 14), monatin/sucrose, or monatin/HFCS. One part of syrup was added to 5.5 parts carbonated water and evaluated.
Assessments were carried out ‘double blind’ by a panel of trained tasters. The sucrose-sweetened product was identified as the control and all other products randomly coded. Panelists were asked to assess the randomly coded sample relative to the control for the following attributes:
Panelists also were asked assign a score (1; poor-5; good) for the quality of the sweetener system. A summary of the comments generated together with the average score awarded is presented in Tables 12 and 13 for lemon/lime carbonates and colas, respectively. […] Blends of monatin/carbohydrate rated higher. In the cola, monatin was similar to aspartame.

[4] = cola, sucrose 10% (control), monatin 80 ppm
[5] = lemon/lime carbonate, sucrose 10% (control), monatin 67 ppm

With NC(CC(O)(Cc1c[nH]c2ccccc12)C(=O)O)C(=O)O (racemic) [Monatin, 2-hydroxy-2-(indol-3-ylmethyl)-4-aminoglutaric acid] the “Sweetness Retained” value ([1]; after 100 days storage at pH 2.5 at 40° C.) was 29%, the “Sweetness Retained” value ([1]; after 100 days storage at pH 3.0 at 40° C.) was 58% and the “Sweetness Retained” value ([1]; after 100 days storage at pH 4.0 at 40° C.) was 78%. The “Rate constant (k) of sweetness loss” value ([1]; pH 2.5, 40° C.) was 0.011 day⁻¹, the SEV ([1]; pH 2.5 buffer, day 0) was 7.35 % sucrose and the “Retention of Sweetness” value ([1]; pH 2.5 buffer, day 1) was 93.3%. The SEV ([1]; pH 2.5 buffer, day 1) was 6.86 % sucrose, the “Retention of Sweetness” value ([1]; pH 2.5 buffer, day 2) was 91.2% and the SEV ([1]; pH 2.5 buffer, day 2) was 6.70 % sucrose. The “Retention of Sweetness” value ([1]; pH 2.5 buffer, day 3) was 88.4%, the SEV ([1]; pH 2.5 buffer, day 3) was 6.50 % sucrose and the “Retention of Sweetness” value ([1]; pH 2.5 buffer, day 4) was 85.2%. The SEV ([1]; pH 2.5 buffer, day 4) was 6.26 % sucrose, the “Retention of Sweetness” value ([1]; pH 2.5 buffer, day 7) was 82.7% and the SEV ([1]; pH 2.5 buffer, day 7) was 6.08 % sucrose. For the same compound, the “Retention of Sweetness” value ([1]; pH 2.5 buffer, day 8) was 81.4%, the SEV ([1]; pH 2.5 buffer, day 8) was 5.98 % sucrose and the “Retention of Sweetness” value ([1]; pH 2.5 buffer, day 9) was 80.1%. The SEV ([1]; pH 2.5 buffer, day 9) was 5.89 % sucrose, the “Retention of Sweetness” value ([1]; pH 2.5 buffer, day 11) was 78.6% and the SEV ([1]; pH 2.5 buffer, day 11) was 5.78 % sucrose. For the same compound, the “Retention of Sweetness” value ([1]; pH 2.5 buffer, day 50) was 62.7%, the SEV ([1]; pH 2.5 buffer, day 50) was 4.61 % sucrose and the “Retention of Sweetness” value ([1]; pH 2.5 buffer, day 100) was 28.6%. The SEV ([1]; pH 2.5 buffer, day 100) was 2.10 % sucrose, the “Rate constant (k) of sweetness loss” value ([1]; pH 3.0, 40° C.) was 0.006 day⁻¹ and the SEV ([1]; pH 3.0 buffer, day 0) was 7.08 % sucrose. For the same compound, the “Retention of Sweetness” value ([1]; pH 3.0 buffer, day 1) was 99.6%, the SEV ([1]; pH 3.0 buffer, day 1) was 7.05 % sucrose and the “Retention of Sweetness” value ([1]; pH 3.0 buffer, day 2) was 93.2%. The SEV ([1]; pH 3.0 buffer, day 2) was 6.60 % sucrose, the “Retention of Sweetness” value ([1]; pH 3.0 buffer, day 3) was 91.4% and the SEV ([1]; pH 3.0 buffer, day 3) was 6.47 % sucrose. The “Retention of Sweetness” value ([1]; pH 3.0 buffer, day 4) was 91.6%, the SEV ([1]; pH 3.0 buffer, day 4) was 6.49 % sucrose and the “Retention of Sweetness” value ([1]; pH 3.0 buffer, day 7) was 85.3%. For the same compound, the SEV ([1]; pH 3.0 buffer, day 7) was 6.04 % sucrose, the “Retention of Sweetness” value ([1]; pH 3.0 buffer, day 8) was 83.8% and the SEV ([1]; pH 3.0 buffer, day 8) was 5.93 % sucrose. The “Retention of Sweetness” value ([1]; pH 3.0 buffer, day 9) was 83.1%, the SEV ([1]; pH 3.0 buffer, day 9) was 5.88 % sucrose and the “Retention of Sweetness” value ([1]; pH 3.0 buffer, day 11) was 83.1%. The SEV ([1]; pH 3.0 buffer, day 11) was 5.88 % sucrose, the “Retention of Sweetness” value ([1]; pH 3.0 buffer, day 50) was 72.3% and the SEV ([1]; pH 3.0 buffer, day 50) was 5.12 % sucrose. For the same compound, the “Retention of Sweetness” value ([1]; pH 3.0 buffer, day 100) was 57.9%, the SEV ([1]; pH 3.0 buffer, day 100) was 4.10 % sucrose and the “Rate constant (k) of sweetness loss” value ([1]; pH 4.0, 40° C.) was 0.003 day⁻¹. The SEV ([1]; pH 4.0 buffer, day 0) was 7.40 % sucrose, the “Retention of Sweetness” value ([1]; pH 4.0 buffer, day 3) was 95.7% and the SEV ([1]; pH 4.0 buffer, day 3) was 7.08 % sucrose. The “Retention of Sweetness” value ([1]; pH 4.0 buffer, day 8) was 86.8%, the SEV ([1]; pH 4.0 buffer, day 8) was 6.42 % sucrose and the “Retention of Sweetness” value ([1]; pH 4.0 buffer, day 11) was 85.9%. For the same compound, the SEV ([1]; pH 4.0 buffer, day 11) was 6.36 % sucrose, the “Retention of Sweetness” value ([1]; pH 4.0 buffer, day 17) was 82.4% and the SEV ([1]; pH 4.0 buffer, day 17) was 6.10 % sucrose. The “Retention of Sweetness” value ([1]; pH 4.0 buffer, day 24) was 84.5%, the SEV ([1]; pH 4.0 buffer, day 24) was 6.25 % sucrose and the “Retention of Sweetness” value ([1]; pH 4.0 buffer, day 50) was 82.9%. For the same compound, the SEV ([1]; pH 4.0 buffer, day 50) was 6.14 % sucrose, the “Retention of Sweetness” value ([1]; pH 4.0 buffer, day 100) was 78.4% and the SEV ([1]; pH 4.0 buffer, day 100) was 5.80 % sucrose. It also gave a half-life ([1]; pH 2.5, 40° C.) of 65 days, a half-life ([1]; pH 3.0, 40° C.) of 115 days and a half-life ([1]; pH 4.0, 40° C.) of 230 days. For the same compound, the “Comments (sensory evaluation)” value [2] was “Overall, judged quite similar qualitatively”, the Aftertaste [3, 4] was “Some lingering” and the Mouthfeel [3, 4] was “Thinner than control”. For the same compound, the Aftertaste [3, 5] was “Quite clean, slight”, the Mouthfeel [3, 5] was “Slightly less” and the “Sweetness Profile” value [3, 5] was “Slight delay in onset -”. For the same compound, the “Average Score” value ([3]; cola, monatin 80 ppm) was 2.9 and the “Average Score” value ([3]; lemon/lime carbonate, monatin 67 ppm) was 4.0.
